In patent publication US12076328B2 (priority 2020, dated 2024):

Key:
[1] = Oral pharmacokinetic analysis in rats; assay type: in vivo; settings: niclosamide dose 10 mg/kg by oral gavage, n = 5
Experimental: The oral pharmacokinetic analysis was conducted at Pharmaron (Ningbo, China). The study protocol was approved and conducted in accordance with the Institutional Animal Care and Use Committee (IACUC) guidelines at Pharmaron. (IACUC; Protocol Number AUP-PK-R-06012019). […] The powders were blended by mortar and pestle and loaded into the capsules using the capsule filling funnel for size 9 (Torpac, Fairfield, NJ, USA). […] Two mobile phases were used. The mobile phase A was a 0.1% formic acid aqueous solution, and the mobile phase B was a mixture of 5% water and 95% acetonitrile (0.1% formic acid). Then, 50 μL of plasma with 5 μL of methanol were added to 200 μL of methanol containing an internal standard mixture for protein precipitation. The samples were vortexed for 30 s and underwent centrifugation for 15 min at 4000 rpm and […]. Thereafter, the supernatant was diluted three times with water, and 2 μL were injected into the HPLC. Furthermore, the resultant particles were subjected to dissolution and the resultant supernatants after centrifugation were analyzed.

[2] = Pharmacokinetic evaluation of milled niclosamide extrudate in CD-1 mice; assay type: in vivo; settings: 500 mg/kg suspended in 0.5% Methocel A4M
COVID-19 = settings: Vero E6 cells; cited from earlier work
SARS-CoV = settings: Vero cells infected by SARS-CoV (2002 pandemic); cited from earlier work
SARS-CoV-2 = assay type: cell-based; settings: assumed that the wet tissue has a density

With `O=C(Nc1ccc([N+](=O)[O-])cc1Cl)c1cc(Cl)ccc1O` the AUCInf [1] was 0.188 µg·h/mL, the AUClast [1] was 0.168 µg·h/mL and the “AUC—% Extrap_obs” value [1] was 8.4%. For the same compound, the Cmax [1] was 0.0483 µg/mL, the MRTInf_obs [1] was 3.56 h and the T1/2 [1] was 1.00 h. It also gave a Tmax [1] of 3.60 h.

With `O=C(Nc1ccc([N+](=O)[O-])cc1Cl)c1cc(Cl)ccc1O` [Crystalline Nic] the AUC0-last [2] was 1.4546 µg·h/mL, the Cmax [2] was 0.6617 µg/mL and the Tmax [2] was 0.5 h.

In the case of `CCN(CC)CCCC(C)Nc1ccnc2cc(Cl)ccc12` (stereo not shown) [chloroquine], the IC50 (COVID-19) is given as 1.13 µM and the IC50 (SARS-CoV) is given as 4.4 µM.

With `O=C(Nc1ccc([N+](=O)[O-])cc1Cl)c1cc(Cl)ccc1O` [niclosamide, 5-Chloro-N-(2-chloro-4-nitrophenyl)salicylamide] the “Estimated niclosamide IC50 for SARS-CoV-2” value (SARS-CoV-2) was 0.09156 μg/g of wet tissue.
